Active and inactive are the calls of the source. Cut-off read from the data, not from the text of the source, for most assays here: actives have a measured IC50 and inactives only a lower limit.
Experiments:
[1] = biological target: T1, Sentrin-specific protease 8 (Homo sapiens, UniProt Q96LD8); assay type: functional;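 note: luminescence read-out of SENP8 inhibition, dose-response confirmation following an ultra-high-throughput screen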
T1 sequence (Q96LD8 whole entry): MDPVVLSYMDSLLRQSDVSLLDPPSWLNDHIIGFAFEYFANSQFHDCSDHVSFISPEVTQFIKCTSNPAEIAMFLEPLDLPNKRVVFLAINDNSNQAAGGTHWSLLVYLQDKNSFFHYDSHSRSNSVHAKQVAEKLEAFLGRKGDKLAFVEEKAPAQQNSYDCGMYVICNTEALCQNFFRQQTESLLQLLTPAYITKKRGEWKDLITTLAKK

Streptokinase A = biological target: T2, Streptokinase A (Streptococcus pyogenes serotype M1, UniProt P10520); assay: S. pyogenes streptokinase expression inhibitors, potency, dose response, plasminogen activation absorbance, OD405 (AID 1914); assay type: functional, Streptococcus pyogenes M1 GAS;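 note: secreted streptokinase activity via plasminogen activation per viability signal from cell pellet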
T2 sequence (P10520 whole entry): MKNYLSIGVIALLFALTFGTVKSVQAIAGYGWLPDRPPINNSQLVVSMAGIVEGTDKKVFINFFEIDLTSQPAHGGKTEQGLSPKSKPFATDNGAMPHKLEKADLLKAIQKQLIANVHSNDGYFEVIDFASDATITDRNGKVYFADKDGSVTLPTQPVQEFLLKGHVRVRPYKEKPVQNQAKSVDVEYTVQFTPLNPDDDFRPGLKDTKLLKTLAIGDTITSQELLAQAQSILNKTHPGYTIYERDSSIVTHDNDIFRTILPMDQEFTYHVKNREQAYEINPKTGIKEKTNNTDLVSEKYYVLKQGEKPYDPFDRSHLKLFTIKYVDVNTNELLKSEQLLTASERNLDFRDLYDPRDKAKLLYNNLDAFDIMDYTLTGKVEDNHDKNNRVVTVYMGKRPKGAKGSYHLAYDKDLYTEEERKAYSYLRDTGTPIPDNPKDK

[2] = biological target: T3, Sentrin-specific protease 6 (Homo sapiens, UniProt Q9GZR1); assay type: functional;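 note: Luminescence-based dose-response confirmatory assay of SENP6 inhibition, following up an ultra-high-throughput screen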
T3 sequence (Q9GZR1 whole entry): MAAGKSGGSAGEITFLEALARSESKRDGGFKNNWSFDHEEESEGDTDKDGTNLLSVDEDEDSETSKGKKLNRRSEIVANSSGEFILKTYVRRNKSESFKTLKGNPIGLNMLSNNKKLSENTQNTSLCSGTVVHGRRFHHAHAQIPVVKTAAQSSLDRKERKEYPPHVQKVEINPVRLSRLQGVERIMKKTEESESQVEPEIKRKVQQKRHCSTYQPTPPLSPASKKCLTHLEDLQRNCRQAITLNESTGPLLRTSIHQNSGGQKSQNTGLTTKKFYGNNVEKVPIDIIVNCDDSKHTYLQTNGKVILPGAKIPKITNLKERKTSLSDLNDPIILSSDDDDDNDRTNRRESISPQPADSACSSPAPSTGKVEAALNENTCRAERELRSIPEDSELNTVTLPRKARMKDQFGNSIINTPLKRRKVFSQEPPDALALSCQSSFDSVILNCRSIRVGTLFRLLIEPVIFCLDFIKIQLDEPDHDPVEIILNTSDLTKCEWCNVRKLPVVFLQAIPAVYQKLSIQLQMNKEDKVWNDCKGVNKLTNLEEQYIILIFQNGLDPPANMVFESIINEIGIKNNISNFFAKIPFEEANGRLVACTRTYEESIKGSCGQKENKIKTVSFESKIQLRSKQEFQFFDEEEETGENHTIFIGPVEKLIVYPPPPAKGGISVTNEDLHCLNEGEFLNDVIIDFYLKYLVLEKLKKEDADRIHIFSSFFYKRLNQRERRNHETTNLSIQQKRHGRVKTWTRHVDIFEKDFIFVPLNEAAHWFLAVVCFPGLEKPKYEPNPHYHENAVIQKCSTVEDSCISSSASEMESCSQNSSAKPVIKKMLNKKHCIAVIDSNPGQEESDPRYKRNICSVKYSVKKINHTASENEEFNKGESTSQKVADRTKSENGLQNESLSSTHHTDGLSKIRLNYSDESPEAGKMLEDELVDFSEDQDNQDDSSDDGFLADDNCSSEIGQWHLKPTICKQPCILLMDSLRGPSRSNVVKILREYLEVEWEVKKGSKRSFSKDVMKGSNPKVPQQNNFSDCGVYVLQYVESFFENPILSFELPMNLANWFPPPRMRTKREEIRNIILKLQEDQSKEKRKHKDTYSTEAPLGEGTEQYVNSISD

Caspase-3 = biological target: T4, Caspase-3 (Homo sapiens, UniProt P42574); assay type: functional;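 note: Dose-response selectivity test against caspase-3 for candidate inhibitors of sentrin-specific proteases (SENPs)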
T4 sequence (P42574 whole entry): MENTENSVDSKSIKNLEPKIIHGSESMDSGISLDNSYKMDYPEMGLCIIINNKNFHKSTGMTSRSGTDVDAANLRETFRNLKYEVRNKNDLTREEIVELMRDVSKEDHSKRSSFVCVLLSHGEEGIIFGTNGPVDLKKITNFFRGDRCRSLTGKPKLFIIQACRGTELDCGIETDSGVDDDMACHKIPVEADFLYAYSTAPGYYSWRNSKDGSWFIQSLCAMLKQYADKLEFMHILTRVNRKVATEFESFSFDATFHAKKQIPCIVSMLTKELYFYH

Clc1ccc(C2=CSC3=Nc4cccc5cccc(c45)N23)cc1
IC50 [1]: 2.04 µM (active)
EC50 (Streptokinase A): > 150 µM (not active)
IC50 [2]: 1.89 µM (active)
IC50 (Caspase-3): 7.93 µM (active)
